Data: ChEMBL document CHEMBL4619763 (J Nat Prod, 2020)

Legend:
[1] = system: Rattus norvegicus; assay: Diuretic activity in normotensive Wistar rat assessed as urinary chloride excretion at 0.01 mg/kg, po administered via gavage after 8 hrs (reference value: 135.10 to 143.70 mmol/L); assay type: functional
[2] = system: Rattus norvegicus; assay: Diuretic activity in normotensive Wistar rat assessed as urinary chloride excretion at 1 mg/kg, ip […] after 8 hrs (reference value: 103.30 +/- 10.25 mmol/L); assay type: functional
[3] = system: Rattus norvegicus; assay: Diuretic activity in normotensive Wistar rat assessed as urine pH at 0.1 mg/kg, po administered via gavage after 8 hrs in presence of amiloride (reference value: 6.14 to 6.21); assay type: functional
[4] = system: Rattus norvegicus; assay: Diuretic activity in normotensive Wistar rat assessed as urinary sodium excretion at 0.1 mg/kg, po administered via gavage after 8 hrs in presence of furosemide (reference value: 61.82 to 80.81 mmol/L); assay type: functional
[5] = system: Rattus norvegicus; assay: Diuretic activity in normotensive Wistar rat assessed as urinary potassium excretion at 0.1 mg/kg, po administered via gavage after 8 hrs in presence of atropine (reference value: 22.39 to 24.21 mmol/L); assay type: ADME, organism-based; conditions: in vivo
[6] = Toxicity in spontaneous hypertensive Wistar rat assessed as changes in plasma sodium level at 0.1 mg/kg, po administered for 7 days; assay type: organism-based; conditions: in vivo, 168 h
[7] = Toxicity in normotensive Wistar rat assessed as changes in plasma nitrite acid level at 0.1 mg/kg, po administered for 7 days; assay type: organism-based; conditions: in vivo, 168 h
[8] = system: Rattus norvegicus; assay: Anti-urolithic activity in normotensive Wistar rats assessed as reduction in CaOx crystal formation in cumulative urine at 0.1 mg/kg, po administered via gavage in presence of sodium oxalate by Neubauer counting chamber method relative to control; assay type: functional; set-up: scale not given: the % may be the effect or the level left

With C[C@@H]1O[C@@H](Oc2c(-c3ccc(O)cc3)oc3cc(O)cc(O)c3c2=O)[C@H](O)[C@H](O)[C@H]1O [AFZELIN] the Activity [1] was 113.3 mmol/L, the Activity [2] was 107.4 mmol/L and the pH [3] was 6.26. For the same compound, the Activity [4] was 75.54 mmol/L, the Activity [5] was 16.83 mmol/L and the Activity [6] was “Non-Toxic”. The Activity [7] was “Non-Toxic” and the Activity [8] was 41.3%.
